The results in this text go back to patent US20080039450A1, “Compounds” (priority 2006, published 2008).

Each structure is given as a SMILES string.

The experiment concerns the target T1, MNK2a (Homo sapiens, UniProt Q9HBH9).
T1 construct: expressed in transfected cells; host or cells: HEK293 cells, transient co-transfection with p-eIF4E and p-MNK2a (FuGene6)
The experiment can be described thus: Cell assay of MNK2a: phosphorylation of downstream substrate eIF4E in HEK293 cells transfected with MNK2a and eIF4E (Western blot). The note with it: HEK293 cells over-expressing MNK2a and eIF4E; 60 min incubation; phospho-eIF4E band at 28 kDa by densitometry. It counts as cell-based. How it is done: Analysis of the Effect of MNK-Inhibitors on Phosphorylation of the DownStream Substrate eIF4E
According to the literature el F4E is a unique substrate for MNK1 and MNK2. The purpose of the analysis was to over-express MNK2a together with eIF4E and subsequently incubate with substances of the invention. This would inhibit the MNK2a activity and thereby the phosphorylation of eIF 4E.
Day 1 HEK293 cells were plated in a T162 cm2-flask.
Day 2 Transient transfection with p-elF4E and p-MNK2a. […]
Protein Determination: • The cell lysates were thawed by putting the plates on ice, transferred to Eppendorf tubes and centrifuged at 1300 g, +4° C., 10 min. • 12.5 μl of the supernatant was transferred directly to the plate for protein determination (->dil 1:2) and the rest of the supernatant to new pre-cold tubes and store in −70° C. until assayed. • Day 5-6 Western Blot analysis of cell lysates, according to standard methods, using a specific phospho-elF4E antibody. • To quantify the effect of the substance on the phosphorylation of eIF4E, developed x-ray film from the Western blot analysis was scanned using a densitometer and Image Gauge 4.0 software. The detected band at 28 kDa with 0 μM substance was set to 100%. The density of the band at 28 kDa with the different concentrations of the substance was then analysed. […]
On the technique in general: In western blotting, separated proteins are transferred to a membrane and probed.

T1 sequence (Q9HBH9 whole entry): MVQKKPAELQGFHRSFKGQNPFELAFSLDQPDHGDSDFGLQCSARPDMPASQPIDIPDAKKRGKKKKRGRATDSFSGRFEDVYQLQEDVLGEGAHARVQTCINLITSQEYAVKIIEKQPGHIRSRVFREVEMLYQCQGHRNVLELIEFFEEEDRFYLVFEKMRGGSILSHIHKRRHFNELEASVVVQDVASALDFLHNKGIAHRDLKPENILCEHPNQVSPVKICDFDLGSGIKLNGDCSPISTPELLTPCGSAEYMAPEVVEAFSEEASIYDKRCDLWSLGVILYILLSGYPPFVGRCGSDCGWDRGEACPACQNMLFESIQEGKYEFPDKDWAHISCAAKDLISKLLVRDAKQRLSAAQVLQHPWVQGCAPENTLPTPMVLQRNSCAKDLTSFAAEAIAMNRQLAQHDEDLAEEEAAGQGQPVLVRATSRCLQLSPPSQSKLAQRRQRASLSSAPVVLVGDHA

For orientation: IC50 means the concentration that inhibits the measured activity by half. Read a high IC50 as a need for much substance. With `Nc1ncc(-c2ccc(C(=O)N3CCOCC3)cc2F)nc1-c1ccc(O)cc1` [Example 6, 4-{3-amino-6-[2-fluoro-4-(morpholin-4-ylcarbonyl)phenyl]pyrazin-2-yl}phenol], half-maximal inhibition (IC50) required 1.9 µM.

For the compound `O=C(c1ccc(-c2cncc(-c3ccc(O)cc3)n2)cc1)N1CCOCC1` [Example 77, 4-{6-[4-(morpholin-4-ylcarbonyl)phenyl]pyrazin-2-yl}phenol], it took 0.9 µM to reach half-maximal inhibition (IC50). Compared with the last compound, the IC50 is about 2.1-fold lower.
